Results published in patent US8912184B1, “Therapeutic and diagnostic methods” (Alzheimer's Institute of America, Inc., priority 2010, dated 2014).
Where two headings read alike, the source gives them in different places.

Experiments:
cancer cell lines = experiment: Standard Cytotoxicity Assay for other cancer cell types (TC50, CellTiter-Glo); type: cell-based
Description: (§1) Approximately 24 hours later, test compound was added from serial dilutions prepared in DMSO from DMSO stock solutions.

[1] = as above; type: cell-based; conditions: for CC50 at 3 day: read-out: Cmpd A 3 day TC50; for CC50 at 7 day: read-out: Cmpd A 7 day TC50
Description: as §1

[2] = human, MALME-3 cells (normal skin), MALME-3 cells (skin (normal))
[3] = human, hFLS-RA (primary synoviocytes)
[4] = keratinocytes (primary skin cells), keratinocytes (primary skin)

## O=C(NCc1cccnc1)Nc1ccc(COc2ccccc2-c2ccccc2)cc1 [Exemplary Compound A, 1-{4-[(biphenyl-2-yloxy)methyl]phenyl}-3-(pyridin-3-ylmethyl)urea]
Cancer cell lines; Homo sapiens, NB-4, 72 h, NB-4 cells (myelogenous leukemia), 3 day, read-out: Cmpd A 3 day TC50
  CC50: < 0.8 nM
Cancer cell lines; Homo sapiens, NCI-H69, 72 h, NCI-H69 (SCLC), 3 DAY, read-out: TC50 (the source's name)
  CC50: 1 nM
Cancer cell lines; Homo sapiens, NCI-H69, 72 h, NCI-H69 cells (lung (small cell)), 3 day, read-out: Cmpd A 3 day TC50
  CC50: 1 nM
Cancer cell lines; Homo sapiens, NCI-H82, 72 h, NCI-H82 (SCLC), 3 DAY, read-out: TC50 (the source's name)
  CC50: 1.1 nM
Cancer cell lines; Homo sapiens, NCI-H226, 72 h, NCI-H226 cells (lung (NSCLC)), 3 day, read-out: Cmpd A 3 day TC50
  CC50: 62 nM
Cancer cell lines; Homo sapiens, NCI-H460, 72 h, NCI-H460 (NSCLC), 3 DAY, read-out: TC50 (the source's name)
  CC50: 15.4 nM
Cancer cell lines; Homo sapiens, NCI-H460, 72 h, NCI-H460 cells (lung (NSCLC)), 3 day, n = 9, read-out: Cmpd A 3 day TC50
  CC50: 26 nM
Cancer cell lines; Homo sapiens, NCI-H460, 168 h, NCI-H460 cells (lung (NSCLC)), 7 day, n = 8, read-out: Cmpd A 7 day TC50
  CC50: 17 nM
Cancer cell lines; Homo sapiens, NCI-H522, 72 h, NCI-H522 (NSCLC), 3 DAY, read-out: TC50 (the source's name)
  CC50: 1 nM
Cancer cell lines; Homo sapiens, NCI-H522, 168 h, NCI-H522 (NSCLC), 7 DAY, read-out: TC50 (the source's name)
  CC50: 0.4 nM
Cancer cell lines; Homo sapiens, NCI-H522, 168 h, NCI-H522 cells (lung (NSCLC)), 7 day, read-out: Cmpd A 7 day TC50
  CC50: 0.4 nM
Cancer cell lines; Homo sapiens, NCI-H929, 72 h, NCI-H929 (myeloma), 3 DAY, read-out: TC50 (the source's name)
  CC50: 2.5 nM
Cancer cell lines; Homo sapiens, NCI-H1299, 72 h, NCI-H1299 cells (lung (NSCLC)), 3 day, read-out: Cmpd A 3 day TC50
  CC50: 4 nM
Cancer cell lines; Homo sapiens, NCI-H1650, 72 h, NCI-H1650 (NSCLC), 3 DAY, read-out: TC50 (the source's name)
  CC50: 2.5 nM
Cancer cell lines; Homo sapiens, NCI-H1650, 72 h, NCI-H1650 cells (lung (NSCLC)), 3 day, read-out: Cmpd A 3 day TC50
  CC50: 1.5 nM
Cancer cell lines; Homo sapiens, NCI-N87, 72 h, NCI-N87 (gastric), 3 DAY, read-out: TC50 (the source's name)
  CC50: 0.3 nM
Cancer cell lines; Homo sapiens, NCI-N87, 72 h, NCI-N87 cells (gastric), 3 day, read-out: Cmpd A 3 day TC50
  CC50: 0.3 nM
Cancer cell lines; Homo sapiens, NCI-N87, 168 h, NCI-N87 (gastric), 7 DAY, read-out: TC50 (the source's name)
  CC50: 0.2 nM
Cancer cell lines; Homo sapiens, NCI-N87, 168 h, NCI-N87 cells (gastric), 7 day, read-out: Cmpd A 7 day TC50
  CC50: 0.2 nM
Cancer cell lines; Homo sapiens, NOMO-1, 72 h, NOMO-1 cells (myelogenous leukemia), 3 day, read-out: Cmpd A 3 day TC50
  CC50: < 0.8 nM
Cancer cell lines; Homo sapiens, OCI-LY19, 72 h, OCI-LY-19 cells (lymphoma), 3 day, read-out: Cmpd A 3 day TC50
  CC50: 1.1 nM
Cancer cell lines; Homo sapiens, OCI-LY19, 72 h, OCI-Ly19 (lymphoma), 3 DAY, read-out: TC50 (the source's name)
  CC50: 1.2 nM
Cancer cell lines; Homo sapiens, OPM-2, 72 h, OPM-2 (myeloma), 3 DAY, read-out: TC50 (the source's name)
  CC50: 1.5 nM
Cancer cell lines; Homo sapiens, OVCAR-3, 72 h, OVCAR3 (ovarian), 3 DAY, read-out: TC50 (the source's name)
  CC50: 1.1 nM
Cancer cell lines; Homo sapiens, OVCAR-3, 72 h, OVCAR-3 cells (ovary), 3 day, read-out: Cmpd A 3 day TC50
  CC50: 1.1 nM
Cancer cell lines; Homo sapiens, OVCAR-3, 168 h, OVCAR3 (ovarian), 7 DAY, read-out: TC50 (the source's name)
  CC50: 0.4 nM
Cancer cell lines; Homo sapiens, OVCAR-3, 168 h, OVCAR-3 cells (ovary), 7 day, read-out: Cmpd A 7 day TC50
  CC50: 0.4 nM
Cancer cell lines; Homo sapiens, OVCAR-4, 72 h, OVCAR-4 cells (ovary), 3 day, read-out: Cmpd A 3 day TC50
  CC50: 2.8 nM
Cancer cell lines; Homo sapiens, OVCAR-5, 72 h, OVCAR-5 cells (ovary), 3 day, read-out: Cmpd A 3 day TC50
  CC50: 1.5 nM
Cancer cell lines; Homo sapiens, OVCAR-8, 72 h, OVCAR-8 cells (ovary), 3 day, read-out: Cmpd A 3 day TC50
  CC50: 0.5 nM
Cancer cell lines; Homo sapiens, PC-3, 72 h, PC-3 cells (prostate), 3 day, read-out: Cmpd A 3 day TC50
  CC50: < 1.5 nM
Cancer cell lines; Homo sapiens, PFSK-1, 72 h, PFSK-1 cells (brain; malignant neuroectodermal tumor), 3 day, read-out: Cmpd A 3 day TC50
  CC50: < 0.8 nM
Cancer cell lines; Homo sapiens, RPMI-8226, 72 h, RPMI-8226 cells (myeloma), 3 day, read-out: Cmpd A 3 day TC50
  CC50: 6 nM
Cancer cell lines; Homo sapiens, Ramos, 72 h, Ramos cells (lymphoma), 3 day, read-out: Cmpd A 3 day TC50
  CC50: 1.8 nM
Cancer cell lines; Homo sapiens, SF-295, 72 h, SF-295 (glioma), 3 DAY, read-out: TC50 (the source's name)
  CC50: 1.5 nM
Cancer cell lines; Homo sapiens, SK-BR-3, 72 h, SK-BR-3 cells (breast), 3 day, read-out: Cmpd A 3 day TC50
  CC50: 6.8 nM
Cancer cell lines; Homo sapiens, SK-OV-3, 72 h, SK-OV-3 cells (ovary), 3 day, read-out: Cmpd A 3 day TC50
  CC50: 1.2 nM
Cancer cell lines; Homo sapiens, SKM-1, 72 h, SKM-1 cells (myelogenous leukemia), 3 day, read-out: Cmpd A 3 day TC50
  CC50: < 0.8 nM
Cancer cell lines; Homo sapiens, SR, 72 h, SR cells (lymphoma), 3 day, read-out: Cmpd A 3 day TC50
  CC50: 21 nM
Cancer cell lines; Homo sapiens, SU-DHL10, 72 h, SU-DHL-10 cells (lymphoma), 3 day, read-out: Cmpd A 3 day TC50
  CC50: 0.75 nM
Cancer cell lines; Homo sapiens, SU-DHL-1, 72 h, SU-DHL-1 cells (lymphoma), 3 day, read-out: Cmpd A 3 day TC50
  CC50: 37 nM
Cancer cell lines; Homo sapiens, SU-DHL-4, 72 h, SU-DHL-4 (lymphoma), 3 DAY, read-out: TC50 (the source's name)
  CC50: 1.5 nM
Cancer cell lines; Homo sapiens, SU-DHL-4, 72 h, SU-DHL-4 cells (lymphoma), 3 day, read-out: Cmpd A 3 day TC50
  CC50: 0.84 nM
Cancer cell lines; Homo sapiens, SU-DHL-5, 72 h, SU-DHL-5 (lymphoma), 3 DAY, read-out: TC50 (the source's name)
  CC50: 0.9 nM
Cancer cell lines; Homo sapiens, SU-DHL-5, 72 h, SU-DHL-5 cells (lymphoma), 3 day, read-out: Cmpd A 3 day TC50
  CC50: 0.57 nM
Cancer cell lines; Homo sapiens, SU-DHL-8, 72 h, SU-DHL-8 cells (lymphoma), 3 day, read-out: Cmpd A 3 day TC50
  CC50: 0.59 nM
Cancer cell lines; Homo sapiens, SU.86.86, 72 h, SU.86.86 cells (pancreas), 3 day, read-out: Cmpd A 3 day TC50
  CC50: 4.3 nM
Cancer cell lines; Homo sapiens, SW48, 72 h, SW-48 cells (colon), 3 day, read-out: Cmpd A 3 day TC50
  CC50: 2.3 nM
Cancer cell lines; Homo sapiens, SW480, 72 h, SW 480 cells (colon), 3 day, read-out: Cmpd A 3 day TC50
  CC50: 4 nM
Cancer cell lines; Homo sapiens, T47D, 72 h, T47D cells (breast), 3 day, read-out: Cmpd A 3 day TC50
  CC50: 0.8 nM
Cancer cell lines; Homo sapiens, T-24, 72 h, T24 cells (bladder), 3 day, read-out: Cmpd A 3 day TC50
  CC50: 1 nM
Cancer cell lines; Homo sapiens, THP-1, 72 h, THP-1 cells (lymphocytic leukemia), 3 day, read-out: Cmpd A 3 day TC50
  CC50: < 0.8 nM
Cancer cell lines; Homo sapiens, U2OS, 72 h, U-2 OS cells (osteosarcoma), 3 day, read-out: Cmpd A 3 day TC50
  CC50: 2.2 nM
Cancer cell lines; Homo sapiens, U-87 MG, 72 h, U-87MG (glioma), 3 DAY, read-out: TC50 (the source's name)
  CC50: 23 nM
Cancer cell lines; Homo sapiens, U-87 MG, 72 h, U-87 MG cells (brain; glioblastoma/astrocytoma), 3 day, read-out: Cmpd A 3 day TC50
  CC50: 15 nM
Cancer cell lines; Homo sapiens, U-266, 72 h, U266 cells (myeloma), 3 day, read-out: Cmpd A 3 day TC50
  CC50: 18 nM
Cancer cell lines; Homo sapiens, U-266, 168 h, U266 cells (myeloma), 7 day, read-out: Cmpd A 7 day TC50
  CC50: 1.5 nM
Cancer cell lines; Homo sapiens, U-937, 72 h, U-937 cells (lymphoma), 3 day, read-out: Cmpd A 3 day TC50
  CC50: 1 nM
Cancer cell lines; Homo sapiens, UACC-257, 72 h, UACC-257 cells (melanoma), 3 day, read-out: Cmpd A 3 day TC50
  CC50: 27 nM
Cancer cell lines; Homo sapiens, VCaP, 72 h, VCaP cells (prostate), 3 day, n = 2, read-out: Cmpd A 3 day TC50
  CC50: > 10000 nM
Cancer cell lines; Homo sapiens, VCaP, 168 h, VCaP cells (prostate), 7 day, read-out: Cmpd A 7 day TC50
  CC50: 14 nM
Cancer cell lines; Hs766T, 72 h, Hs 766T cells (pancreas), 3 day, read-out: Cmpd A 3 day TC50
  CC50: 4.7 nM
Cancer cell lines; L-82, 72 h, L-82 cells (lymphoma), 3 day, read-out: Cmpd A 3 day TC50
  CC50: 32 nM
Cancer cell lines; MLE12, 72 h, MLE-12 cells (mouse; lung), 3 day, read-out: Cmpd A 3 day TC50
  CC50: 4 nM
Cancer cell lines; MM.1R, 72 h, MM.1R cells (myeloma), 3 day, read-out: Cmpd A 3 day TC50
  CC50: 1.5 nM
Cancer cell lines; Mus musculus, B16-F10, 72 h, B16-F10 cells (mouse; melanoma), 3 day, read-out: Cmpd A 3 day TC50
  CC50: 80 nM
Cancer cell lines; Mus musculus, Hepa1-6, 72 h, Hepa1-6 cells (mouse; hepatoma), 3 day, read-out: Cmpd A 3 day TC50
  CC50: 2.5 nM
Cancer cell lines; Mus musculus, RAW264.7, 72 h, RAW264.7 cells (mouse; leukemia), 3 day, read-out: Cmpd A 3 day TC50
  CC50: 14 nM
Cancer cell lines; OVCAR-3 cells (ovary), 3 day, read-out: Cmpd A 3 day TC50
  CC50: < 0.8 nM
Cancer cell lines; OVCAR-8 cells (ovary), 3 day, read-out: Cmpd A 3 day TC50
  CC50: < 0.8 nM
Cancer cell lines; SR-786, 72 h, SR-786 cells (lymphoma), 3 day, read-out: Cmpd A 3 day TC50
  CC50: 1.1 nM
Cancer cell lines; SU-DHL-10 cells (lymphoma), 3 day, read-out: Cmpd A 3 day TC50
  CC50: 0.83 nM
Cancer cell lines; SUP-M2, 72 h, SUP-M2 cells (lymphoma), 3 day, read-out: Cmpd A 3 day TC50
  CC50: 2.2 nM
Cancer cell lines; T47D cells (breast), 3 day, read-out: Cmpd A 3 day TC50
  CC50: < 1.5 nM
Cancer cell lines; U266 cells (myeloma), 3 day, read-out: Cmpd A 3 day TC50
  CC50: 10.3 nM
Cancer cell lines; U-937 cells (lymphoma), 3 day, read-out: Cmpd A 3 day TC50
  CC50: 0.89 nM
Cancer cell lines; UWB1289, 72 h, UWB1.289 cells (ovary), 3 day, read-out: Cmpd A 3 day TC50
  CC50: 2.4 nM
[1]; SAEC (primary lung cells), SAEC (primary lung), value printed with (?)
  CC50 at 3 day: 15000 nM
[1]; [2]
  CC50 at 3 day: > 5000 nM
  CC50 at 7 day: 0.9 nM
[1]; [3]
  CC50 at 3 day: > 25000 nM
  CC50 at 7 day: > 25000 nM
[1]; [4]
  CC50 at 3 day: 2.9 nM
  CC50 at 7 day: < 0.4 nM
[1]; mouse, NIH-3T3 cells (fibroblast), NIH-3T3 cells (mouse; fibroblast)
  CC50 at 3 day: 0.45 nM
